{
  "source": "patent US4707484A",
  "about": "“Substituted piperidinomethylindolone and cyclopent(b)indolone derivatives” (Hoffmann-La Roche Inc., priority 1986, dated 1987)",
  "key": {"dopamine receptors": {"target": "T1, dopamine receptors (Rattus norvegicus, UniProt P61169)", "T1 construct": "rat striatal brain homogenates; from tissue; host or cells: rat striatum (brain homogenate)", "T1 sequence (P61169 whole entry)": "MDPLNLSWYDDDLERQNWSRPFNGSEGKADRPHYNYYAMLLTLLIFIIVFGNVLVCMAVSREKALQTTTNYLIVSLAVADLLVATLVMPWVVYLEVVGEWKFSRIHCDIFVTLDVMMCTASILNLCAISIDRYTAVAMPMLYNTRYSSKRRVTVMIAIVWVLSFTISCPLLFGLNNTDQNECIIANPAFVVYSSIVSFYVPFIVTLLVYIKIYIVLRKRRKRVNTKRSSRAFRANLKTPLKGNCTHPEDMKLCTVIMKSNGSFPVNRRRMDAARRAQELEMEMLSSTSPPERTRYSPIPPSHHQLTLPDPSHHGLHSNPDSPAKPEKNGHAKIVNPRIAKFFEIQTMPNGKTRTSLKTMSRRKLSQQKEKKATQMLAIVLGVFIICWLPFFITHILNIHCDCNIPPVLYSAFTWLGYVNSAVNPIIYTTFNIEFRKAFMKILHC", "assay": "3H-spiroperidol binding test (rat striatal brain homogenates)", "details": "0.2 nM 3H-spiroperidol, 20 min, read-out: Binding IC50 (inhibition of 3H-spiroperidol binding to dopamine receptors)", "protocol": "Dopamine receptor antagonism by compounds of formula I in vitro is determined by the ^3 H-spiroperidol binding assay. In this test, rat striatal brain homogenates were incubated for 20 minutes in the presence of 0.2 nanomolar ^3 H-spiroperidol and varying concentrations of test compounds. The incubations were terminated by rapid filtrations through Whatman GF/B filters, followed by 2×5 mL washes with ice-cold assay buffer (50 mM tribase-HCl pH 7.7 which contains fixed concentrations of 0.1% ascorbic acid, 120 mM NaCl, 5 mM KCl, 2 mM CaCl2, and 1 mM MgCl2)."}, "[1]": {"assay": "Side effect evaluation in dogs", "format": "in vivo, dog (beagle)", "details": "oral 1 mg/kg, then one day later 10 mg/kg; observed six hours", "protocol": "For side effect liability evaluation, pure breed beagle dogs from Marshall Inc., North Rose, N.Y., were used. Prior to dosing, the dogs were fasted for approximately 18 hrs. Dosing was orally by gelatin capsule. […] Compound of formula Ia was initially administered orally at a dose of 1 mg/kg and then one day later at an oral dose of 10 mg/kg. An experienced observer monitored these dogs for six hours, following dosing."}, "[2]": {"tested_on": "apomorphine-induced rearing", "assay": "Antagonism of apomorphine-induced rearing in mice", "details": "for ED50: Mus musculus; for Antagonism of Apomorphine Rearing % protected at 10 mg/kg: intravenous 10 mg/kg"}, "[3]": {"tested_on": "D-amphetamine hyperactivity (central nervous system dopamine receptors)", "assay": "Antagonism of D-amphetamine hyperactivity in mice", "details": "Mus musculus, read-out: Antagonism of Amphetamine Hyperactivity ED50"}, "apomorphine emesis": {"tested_on": "apomorphine emesis", "assay": "Anti-apomorphine emesis in dogs", "format": "in vivo, dog (female Beagle)", "details": "Canis lupus familiaris, po; orally, 1 hour before apomorphine HCl 0.1 mg/kg s.c.; 1 hour observation; read-out: anti-emetic ED50 (apomorphine emesis)", "protocol": "Pure-bred female Beagle dogs (Fa. WIGA, Versuchstier-Zuchtanstalt, 8741 Sulzfeld, GFR) with an approximate body weight of 15 kg were used. All dogs were shown previously to vomit at least four times during the 60 minutes following injection of 0.1 mg/kg apomorphine .HCl s.c. into the neck. Each dog was used in 14 day intervals. Three drug sessions were followed by an apomorphine control session.\nThe compound of formula If was administered suspended in 5% acacia at different dose levels by oral gavage to at least 4 dogs per dose. One hour later 0.1 mg/kg apomorphine .HCl was injected s.c. and the dogs observed for a further hour for vomiting."}, "cisplatin-induced emesis": {"tested_on": "cisplatin-induced emesis", "assay": "Anti-cisplatin emesis in dogs", "format": "in vivo, dog (Beagle)", "details": "for effectiveness against apomorphine and cisplatin emesis (in words): dogs", "protocol": "The procedure was as follows:\nIn the evaluation 6 male and 6 female Beagle dogs, supplied by White Eagle Laboratories, Doylestown PA., were used. Three dogs were tested daily. Each dog received either saline-placebo, 30 ml i.v.; the compound of formula If, 10 mg/kg i.v.; or domperidone 10 mg/kg i.v. The compound of formula If was dissolved in warm sterile water for injection. Domperidone was solubilized in acetic acid and the pH was adjusted with 2N NaOH. Both drugs were diluted to an infusion volume of 30 mL with sterile water. The treatments were infused over a 30-minute (n=3) or a 60-minute (n=9) period. […] The cisplatin, 1 mg/ml dissolved in sterile water, was infused over a 10 minute period. Each treatment was given to 2 male and 2 female weight-matched dogs.\nThe dogs were fed Wayne dog food moistened in water, 20 grams/kg, one hour prior to treatment. During the observation period the onset, frequency and severity of vomiting episodes as well as any atypical behavioral activity was recorded.\nStatistical evaluation of emetic activity was done using Student's-t test for unpaired data."}, "[4]": {"details": "po, 2 h, read-out: Antagonism of Apomorphine rearing ED50"}, "[5]": {"details": "10 mg/kg i.v., cisplatin 3 mg/kg i.v."}},
  "note": "Structures can show the parent of a compound that is named as a salt. Where two headings read alike, the source gives them in different places.",
  "data": [
    {"smiles": "CCc1c(C)[nH]c2c1C(=O)C(CN1CCC3(CC1)C(=O)NCN3c1ccccc1)CC2", "note": "(stereo not shown) [Compound Ia, 8-[(3-ethyl-4,5,6,7-tetrahydro-2-methyl-4-oxo-1H-indol-5-yl)methyl]-1-phenyl-1,3,8-triazaspiro[4.5]-decan-4-one]", "values": [
      {"measurement": "IC50", "setting": "dopamine receptors", "result": 0.095, "unit": "nM"},
      {"measurement": "grossly observable abnormal signs (behavior, motor coordination)", "setting": "[1]", "result": "Neither dose level produced any grossly observable alteration in behavior or motor coordination nor were any other abnormal signs seen"},
      {"measurement": "ED50", "setting": "[2]; iv, 2 h, read-out: Antagonism of Apomorphine Rearing ED50", "result": 7, "unit": "mg/kg"},
      {"measurement": "ED50", "setting": "[2]; iv, 7 h, read-out: Antagonism of Apomorphine Rearing ED50", "result": 2.3, "unit": "mg/kg"},
      {"measurement": "ED50", "setting": "[2]; [4]", "result": "> 100", "unit": "mg/kg"},
      {"measurement": "ED50", "setting": "[3]; iv, 2 h", "result": 15.9, "unit": "mg/kg"},
      {"measurement": "ED50", "setting": "[3]; iv, 7 h", "result": 8.6, "unit": "mg/kg"},
      {"measurement": "ED50", "setting": "[3]; po, 1 h", "result": "> 100", "unit": "mg/kg"}
    ]},
    {"smiles": "CC1NC(=O)C2(CCN(CC3CCc4[nH]c5c(c4C3=O)CCC5)CC2)N1c1ccccc1", "note": "(stereo not shown) [Compound Ib, 8-[(1,2,3,4,5,6,7,8-octahydro-8-oxocyclopent[b]indol-7-yl)methyl]-2-methyl-1-phenyl-1,3,8-triazaspiro[4.5]-decan-4-one]", "values": [
      {"measurement": "IC50", "setting": "dopamine receptors", "result": 0.94, "unit": "nM"},
      {"measurement": "ED50", "setting": "[2]; [4]", "result": "> 100", "unit": "mg/kg"},
      {"measurement": "Antagonism of Apomorphine Rearing % protected at 10 mg/kg", "setting": "[2]; 4 hr after administration", "result": 36, "unit": "%"},
      {"measurement": "Antagonism of Apomorphine Rearing % protected at 10 mg/kg", "setting": "[2]; 7 hr after administration", "result": 36, "unit": "%"},
      {"measurement": "ED50", "setting": "[3]; po, 1 h", "result": "> 100", "unit": "mg/kg"}
    ]},
    {"smiles": "O=C1c2c([nH]c3c2CCC3)CCC1CN1CCC2(CC1)C(=O)NCN2C1CCCCC1", "note": "(stereo not shown) [Compound Ic, 8-[(1,2,3,4,5,6,7,8-octahydro-8-oxocyclopent[b]indol-7-yl)methyl]-1-cyclohexyl-1,3,8-triazaspiro[4.5]-decan-4-one]", "values": [
      {"measurement": "IC50", "setting": "dopamine receptors", "result": 0.52, "unit": "nM"},
      {"measurement": "ED50", "setting": "[2]; [4]", "result": "> 100", "unit": "mg/kg"},
      {"measurement": "Antagonism of Apomorphine Rearing % protected at 10 mg/kg", "setting": "[2]; 4 hr after administration", "result": 40, "unit": "%"},
      {"measurement": "Antagonism of Apomorphine Rearing % protected at 10 mg/kg", "setting": "[2]; 7 hr after administration", "result": 40, "unit": "%"},
      {"measurement": "ED50", "setting": "[3]; po, 1 h", "result": "> 100", "unit": "mg/kg"}
    ]},
    {"smiles": "Cc1[nH]c2c(c1C)C(=O)C(CN1CCC3(CC1)C(=O)NCN3c1ccccc1)CC2", "note": "(stereo not shown) [Compound Id, 8-[4,5,6,7-tetrahydro-(2,3-dimethyl-4-oxo-1H-indol-5-yl)methyl]-1-phenyl-1,3,8-triazaspiro[4.5]decan-4-one]", "values": [
      {"measurement": "IC50", "setting": "dopamine receptors", "result": 0.078, "unit": "nM"},
      {"measurement": "ED50", "setting": "[2]; iv, 4 h, read-out: Antagonism of Apomorphine Rearing ED50", "result": 5.1, "unit": "mg/kg"},
      {"measurement": "ED50", "setting": "[2]; [4]", "result": 12, "unit": "mg/kg"},
      {"measurement": "ED50", "setting": "[3]; iv, 4 h", "result": "> 20", "unit": "mg/kg"},
      {"measurement": "ED50", "setting": "[3]; po, 1 h", "result": 147, "unit": "mg/kg"}
    ]},
    {"smiles": "CCc1c(C)[nH]c2c1C(=O)C(CN1CCC3(CC1)C(=O)NCN3C1CCCCC1)CC2", "note": "(stereo not shown) [Compound Ie]", "values": [
      {"measurement": "IC50", "setting": "dopamine receptors", "result": 0.082, "unit": "nM"},
      {"measurement": "ED50", "setting": "[2]; [4]", "result": 98, "unit": "mg/kg"},
      {"measurement": "Antagonism of Apomorphine Rearing % protected at 10 mg/kg", "setting": "[2]; 4 hr after administration", "result": 62, "unit": "%"},
      {"measurement": "Antagonism of Apomorphine Rearing % protected at 10 mg/kg", "setting": "[2]; 7 hr after administration", "result": 79, "unit": "%"},
      {"measurement": "ED50", "setting": "[3]; po, 1 h", "result": 235, "unit": "mg/kg"}
    ]},
    {"smiles": "O=C1c2c([nH]c3c2CCC3)CCC1CN1CCC2(CC1)C(=O)NCN2c1ccccc1", "note": "(stereo not shown) [Compound If, 1,2,3,5,6,7-hexahydro-7-[(4-oxo-1-phenyl-1,3,8-triazaspiro[4.5]decan-8-yl)methyl]-4H-cyclopent[b]indol-8(8H)-one]", "values": [
      {"measurement": "IC50", "setting": "dopamine receptors", "result": 0.35, "unit": "nM"},
      {"measurement": "ED50", "setting": "apomorphine emesis", "result": 0.75, "unit": "mg/kg"},
      {"measurement": "Vomiting episodes Mean (± S.E.) 6 Hrs", "setting": "cisplatin-induced emesis; [5]", "result": "6.0 ± 1.8"},
      {"measurement": "Vomiting episodes Mean (± S.E.) 1 hr.", "setting": "cisplatin-induced emesis; [5]", "result": "1.0 ± 0.4"},
      {"measurement": "effectiveness against apomorphine and cisplatin emesis (in words)", "setting": "cisplatin-induced emesis", "result": "effective against both apomorphine and cisplatin emesis in dogs"},
      {"measurement": "ED50", "setting": "[2]; [4]", "result": 12, "unit": "mg/kg"},
      {"measurement": "ED50", "setting": "[3]; po, 1 h", "result": "> 100", "unit": "mg/kg"}
    ]},
    {"smiles": "CN(C)CCCN1c2ccccc2Sc2ccc(Cl)cc21", "note": "[chloropromazine HCl, reference compound]", "values": [
      {"measurement": "ED50", "setting": "[2]; [4]", "result": 4.9, "unit": "mg/kg"},
      {"measurement": "ED50", "setting": "[3]; po, 1 h", "result": 2.1, "unit": "mg/kg"}
    ]},
    {"smiles": "O=c1[nH]c2ccccc2n1CCCN1CCC(n2c(=O)[nH]c3cc(Cl)ccc32)CC1", "note": "[domperidone]", "values": [
      {"measurement": "ED50", "setting": "apomorphine emesis", "result": 0.2, "unit": "mg/kg"},
      {"measurement": "emesis versus controls (in words)", "setting": "cisplatin-induced emesis; [5]", "result": "did not differ significantly from controls"},
      {"measurement": "Vomiting episodes Mean (± S.E.) 6 Hrs", "setting": "cisplatin-induced emesis; [5]", "result": "12.5 ± 2.3"},
      {"measurement": "Vomiting episodes Mean (± S.E.) 1 hr.", "setting": "cisplatin-induced emesis; [5]", "result": "2.1 ± 0.7"},
      {"measurement": "effectiveness against apomorphine and cisplatin emesis (in words)", "setting": "cisplatin-induced emesis", "result": "only effective against apomorphine emesis in dogs"},
      {"measurement": "ED50", "setting": "[2]; [4]", "result": 23, "unit": "mg/kg"},
      {"measurement": "ED50", "setting": "[3]; po, 1 h", "result": 194, "unit": "mg/kg"}
    ]},
    {"smiles": "O=C(CCCN1CCC(O)(c2ccc(Cl)cc2)CC1)c1ccc(F)cc1", "note": "[haloperidol, reference compound]", "values": [
      {"measurement": "ED50", "setting": "[2]; [4]", "result": 0.18, "unit": "mg/kg"},
      {"measurement": "ED50", "setting": "[3]; po, 1 h", "result": 0.23, "unit": "mg/kg"}
    ]}
  ]
}
